Results published in the NIST ThermoML archive (doi:10.1016/j.jct.2006.04.007).

Assay: mn = molality of the nth substance listed, in mol/kg
Conditions: 350 kPa, Liquid; for apparent molar heat capacity: Extra sensitive DSC

CNC(C)=O [N-methylacetamide] + O
Conditions	apparent molar heat capacity [J/K/mol]	mass density [kg/m3]
278.15 K, m1 = 0.015	221	999.98
278.15 K, m1 = 0.04	230	1000.02
278.15 K, m1 = 0.07	243.9	1000.14
278.15 K, m1 = 0.1001	239.7	1000.14
278.15 K, m1 = 0.2002	240.2	1000.14
278.15 K, m1 = 0.4	238.2	1000.26
278.15 K, m1 = 0.599	251.1	1000.35
278.15 K, m1 = 0.8028	237.5	1000.66
278.15 K, m1 = 1	236.3	1000.98
283.15 K, m1 = 0.015	217	999.8
283.15 K, m1 = 0.04	225	999.78
283.15 K, m1 = 0.07	246	999.85
283.15 K, m1 = 0.1001	242.5	999.83
283.15 K, m1 = 0.2002	243.9	999.82
283.15 K, m1 = 0.4	242.3	999.89
283.15 K, m1 = 0.599	254.9	1000
283.15 K, m1 = 0.8028	242.4	1000.14
283.15 K, m1 = 1	241.4	1000.43
288.15 K, m1 = 0.015	213	999.2
288.15 K, m1 = 0.04	221	999.19
288.15 K, m1 = 0.07	247	999.23
288.15 K, m1 = 0.1001	247.1	999.22
288.15 K, m1 = 0.2002	247.9	999.16
288.15 K, m1 = 0.4	246	999.24
288.15 K, m1 = 0.599	257.6	999.28
288.15 K, m1 = 0.8028	245.8	999.39
288.15 K, m1 = 1	244.9	999.54
293.15 K, m1 = 0.015	220	–
293.15 K, m1 = 0.04	230	–
293.15 K, m1 = 0.07	250	–
293.15 K, m1 = 0.1001	251.4	–
293.15 K, m1 = 0.2002	251.6	–
293.15 K, m1 = 0.4	249.2	–
293.15 K, m1 = 0.599	259.8	–
293.15 K, m1 = 0.8028	248.7	–
293.15 K, m1 = 1	248	–
298.15 K, m1 = 0.015	228	–
298.15 K, m1 = 0.04	238	–
298.15 K, m1 = 0.07	252.1	–
298.15 K, m1 = 0.1001	254.8	–
298.15 K, m1 = 0.2002	254.7	–
298.15 K, m1 = 0.4	251.85	–
298.15 K, m1 = 0.599	261.9	–
298.15 K, m1 = 0.8028	251.4	–
298.15 K, m1 = 1	250.8	–
303.15 K, m1 = 0.015	232	–
303.15 K, m1 = 0.04	245	–
303.15 K, m1 = 0.07	254.5	–
303.15 K, m1 = 0.1001	259	–
303.15 K, m1 = 0.2002	258.7	–
303.15 K, m1 = 0.4	254.53	–
303.15 K, m1 = 0.599	264	–
303.15 K, m1 = 0.8028	254.1	–
303.15 K, m1 = 1	253.5	–
308.15 K, m1 = 0.015	236	994.14
308.15 K, m1 = 0.04	250.5	994.12
308.15 K, m1 = 0.07	257.5	994.1
308.15 K, m1 = 0.1001	262.8	994.07
308.15 K, m1 = 0.2002	261.8	993.96
308.15 K, m1 = 0.4	257.09	993.88
308.15 K, m1 = 0.599	266	993.8
308.15 K, m1 = 0.8028	256.5	993.77
308.15 K, m1 = 1	255.95	993.7
313.15 K, m1 = 0.015	243	–
313.15 K, m1 = 0.04	256.4	–
313.15 K, m1 = 0.07	259.8	–
313.15 K, m1 = 0.1001	264.8	–
313.15 K, m1 = 0.2002	263.9	–
313.15 K, m1 = 0.4	259.34	–
313.15 K, m1 = 0.599	267.9	–
313.15 K, m1 = 0.8028	258.7	–
313.15 K, m1 = 1	258.14	–
318.15 K, m1 = 0.015	252	990.32
318.15 K, m1 = 0.04	264.9	990.29
318.15 K, m1 = 0.07	261.2	990.24
318.15 K, m1 = 0.1001	266	990.21
318.15 K, m1 = 0.2002	265.6	990.07
318.15 K, m1 = 0.4	261.43	989.92
318.15 K, m1 = 0.599	269.7	989.82
318.15 K, m1 = 0.8028	260.8	989.72
318.15 K, m1 = 1	260.24	989.61
323.15 K, m1 = 0.015	259	–
323.15 K, m1 = 0.04	268.9	–
323.15 K, m1 = 0.07	262.6	–
323.15 K, m1 = 0.1001	267.4	–
323.15 K, m1 = 0.2002	267.4	–
323.15 K, m1 = 0.4	263.5	–
323.15 K, m1 = 0.599	271.4	–
323.15 K, m1 = 0.8028	262.77	–
323.15 K, m1 = 1	262.22	–
328.15 K, m1 = 0.015	260	985.77
328.15 K, m1 = 0.04	266.5	985.75
328.15 K, m1 = 0.07	265	985.75
328.15 K, m1 = 0.1001	269.3	985.75
328.15 K, m1 = 0.2002	269.2	985.56
328.15 K, m1 = 0.4	265.52	985.32
328.15 K, m1 = 0.599	273.1	985.18
328.15 K, m1 = 0.8028	264.63	985.04
328.15 K, m1 = 1	264.06	984.85
333.15 K, m1 = 0.015	260	–
333.15 K, m1 = 0.04	265.7	–
333.15 K, m1 = 0.07	267	–
333.15 K, m1 = 0.1001	271.2	–
333.15 K, m1 = 0.2002	271	–
333.15 K, m1 = 0.4	267.55	–
333.15 K, m1 = 0.599	274.8	–
333.15 K, m1 = 0.8028	266.47	–
333.15 K, m1 = 1	265.86	–
338.15 K, m1 = 0.015	264	–
338.15 K, m1 = 0.04	266.3	–
338.15 K, m1 = 0.07	269.1	–
338.15 K, m1 = 0.1001	272.8	–
338.15 K, m1 = 0.2002	272.4	–
338.15 K, m1 = 0.4	269.46	–
338.15 K, m1 = 0.599	276.4	–
338.15 K, m1 = 0.8028	268.26	–
338.15 K, m1 = 1	267.6	–
343.15 K, m1 = 0.015	268	–
343.15 K, m1 = 0.04	267.1	–
343.15 K, m1 = 0.07	270.8	–
343.15 K, m1 = 0.1001	274.1	–
343.15 K, m1 = 0.2002	273.7	–
343.15 K, m1 = 0.4	271.09	–
343.15 K, m1 = 0.599	277.9	–
343.15 K, m1 = 0.8028	269.89	–
343.15 K, m1 = 1	269.2	–
348.15 K, m1 = 0.015	271	974.89
348.15 K, m1 = 0.04	268.3	974.87
348.15 K, m1 = 0.07	272.5	974.87
348.15 K, m1 = 0.1001	275.2	974.82
348.15 K, m1 = 0.2002	274.9	974.63
348.15 K, m1 = 0.4	272.57	974.29
348.15 K, m1 = 0.599	279.4	974.05
348.15 K, m1 = 0.8028	271.43	973.79
348.15 K, m1 = 1	270.73	973.51
353.15 K, m1 = 0.015	273	–
353.15 K, m1 = 0.04	269.5	–
353.15 K, m1 = 0.07	274	–
353.15 K, m1 = 0.1001	276.3	–
353.15 K, m1 = 0.2002	276	–
353.15 K, m1 = 0.4	273.95	–
353.15 K, m1 = 0.599	280.7	–
353.15 K, m1 = 0.8028	272.85	–
353.15 K, m1 = 1	272.12	–
358.15 K, m1 = 0.015	274	968.67
358.15 K, m1 = 0.04	270.2	968.65
358.15 K, m1 = 0.07	275.5	968.63
358.15 K, m1 = 0.1001	277.5	968.56
358.15 K, m1 = 0.2002	277.2	968.36
358.15 K, m1 = 0.4	275.31	967.97
358.15 K, m1 = 0.599	281.9	967.67
358.15 K, m1 = 0.8028	274.18	967.36
358.15 K, m1 = 1	273.45	967.06
363.15 K, m1 = 0.015	276	–
363.15 K, m1 = 0.04	270.5	–
363.15 K, m1 = 0.07	277.1	–
363.15 K, m1 = 0.1001	278.7	–
363.15 K, m1 = 0.2002	278.5	–
363.15 K, m1 = 0.4	276.62	–
363.15 K, m1 = 0.599	283.1	–
363.15 K, m1 = 0.8028	275.42	–
363.15 K, m1 = 1	274.69	–
368.15 K, m1 = 0.015	277	961.97
368.15 K, m1 = 0.04	270.9	961.92
368.15 K, m1 = 0.07	278.3	961.9
368.15 K, m1 = 0.1001	279.7	961.83
368.15 K, m1 = 0.2002	279.5	961.62
368.15 K, m1 = 0.4	277.76	961.19
368.15 K, m1 = 0.599	284.1	960.81
368.15 K, m1 = 0.8028	276.51	960.43
368.15 K, m1 = 1	275.75	960.09
373.15 K, m1 = 0.015	277	–
373.15 K, m1 = 0.04	270.8	–
373.15 K, m1 = 0.07	279.3	–
373.15 K, m1 = 0.1001	280.7	–
373.15 K, m1 = 0.2002	280.5	–
373.15 K, m1 = 0.4	278.82	–
373.15 K, m1 = 0.599	285.12	–
373.15 K, m1 = 0.8028	277.53	–
373.15 K, m1 = 1	276.77	–
378.15 K, m1 = 0.015	275	–
378.15 K, m1 = 0.04	270.6	–
378.15 K, m1 = 0.07	280	–
378.15 K, m1 = 0.1001	281.5	–
378.15 K, m1 = 0.2002	281.4	–
378.15 K, m1 = 0.4	279.75	–
378.15 K, m1 = 0.599	286.01	–
378.15 K, m1 = 0.8028	278.43	–
378.15 K, m1 = 1	277.65	–
383.15 K, m1 = 0.015	273	–
383.15 K, m1 = 0.04	270.2	–
383.15 K, m1 = 0.07	280.4	–
383.15 K, m1 = 0.1001	282.2	–
383.15 K, m1 = 0.2002	282.2	–
383.15 K, m1 = 0.4	280.52	–
383.15 K, m1 = 0.599	286.77	–
383.15 K, m1 = 0.8028	279.21	–
383.15 K, m1 = 1	278.41	–
388.15 K, m1 = 0.015	273	–
388.15 K, m1 = 0.04	270.5	–
388.15 K, m1 = 0.07	281.2	–
388.15 K, m1 = 0.1001	282.6	–
388.15 K, m1 = 0.2002	282.8	–
388.15 K, m1 = 0.4	281.15	–
388.15 K, m1 = 0.599	287.45	–
388.15 K, m1 = 0.8028	279.89	–
388.15 K, m1 = 1	279.13	–
393.15 K, m1 = 0.015	278	–
393.15 K, m1 = 0.04	273.2	–
393.15 K, m1 = 0.07	282.4	–
393.15 K, m1 = 0.1001	281.9	–
393.15 K, m1 = 0.2002	282.8	–
393.15 K, m1 = 0.4	281.41	–
393.15 K, m1 = 0.599	287.87	–
393.15 K, m1 = 0.8028	280.37	–
393.15 K, m1 = 1	279.71	–
